Assays:
[1] = cited from earlier work
[2] = Particle characteristics of LNPs containing EGFP mRNA and novel ionizable lipids; format: physicochemical; details: EGFP mRNA LNP 1.6:54.6:32.8:10.9
Procedure, shortened: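 LNPs of PEG-lipid, ionizable lipid, cholesterol and phospholipid in ethanol were mixed 1:1 with mRNA in 100 mM acetate pH 5 via T-junction, diluted in PBS, dialysed, concentrated to ~0.6 mg/mL and exchanged into 5 mM Tris, 10% sucrose, pH 8. Size and polydispersity by Zetasizer; nucleic acid by RiboGreen.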

[3] = Parent ionizable lipid remaining in liver at 24 h after EGFP mRNA LNP (LC-MS); format: in vivo; details: 24 h after IV 0.5 mg/kg EGFP mRNA LNP, female BALB/c mice (n = 4)
[4] = system: EGFP expression in the liver; experiment: Dose response of EGFP mRNA LNP, EGFP expression in liver; format: in vivo; details: 24 h, female BALB/c mice (n = 4)
Protocol: At 24 h post-dose, the novel lipid formulations reported dose-dependent increases in EGFP expression in the liver (Table 32).

[5] = Lipid clearance from liver over time after EGFP mRNA LNP (LC-MS); format: in vivo; details: IV 0.5 mg/kg EGFP mRNA LNP, female BALB/c mice (n = 4)
Protocol: Liver tissues were treated with PBS and homogenized with a FastPrep machine, 3 cycles of 5 m/s×15 s. Homogenates from the PBS-treated control animals was pooled and used for standard curve preparation. Samples were extracted into a deep well plate with 250 μL of an internal suitability standard. Plates were centrifuged for 15 min at 4° C. and 2000 rpm. Analysis was performed using an Agilent 6520 QTOF coupled to an Agilent 1290 UHPLC, using reverse-phase LC separation. Quantitation of the ionizable lipid was by MS/MS against a calibration curve spiked into appropriately matched blank matrix. Calibration used a similar class of synthetic lipid as internal standard.
At various timepoints post-dose, lipid levels were assessed in the liver. Some novel ionizable lipids reported more rapid clearance rates compared to the benchmark (Table 33).

[6] = system: EGFP expression in the liver; experiment: EGFP expression in liver after intravenous EGFP mRNA LNP (ELISA); details: 0.5 mg/kg IV, 24 h post-IV administration, BALB/c mice (n = 4)
Protocol: LNP formulations encapsulating enhanced green fluorescent protein mRNA were injected intravenously at 0.5 mg/kg to female BALB/c mice (6-8 weeks old). On day of injection, the LNP stocks were filtered and diluted to the required dosing concentration with phosphate buffered saline. At 24 hours post-administration, animals were anaesthetized with a lethal dosage of ketamine/xylazine. Liver samples (left lateral lobe) were collected, weighed, and flash frozen in liquid nitrogen. Liver samples were stored in FastPrep® tubes at −80° C. until analyzed for EGFP expression.
Liver homogenates were prepared in cell extraction buffer, diluted, and analyzed for EGFP protein levels using ELISA, according to manufacturer's instructions (Abcam, GFP ELISA Kit).

| SMILES | EGFP expression ([4]; 0.3 mg/kg IV) [pg EGFP/g liver] | EGFP expression ([4]; 1 mg/kg IV) [pg EGFP/g liver] | EGFP expression ([4]; 3 mg/kg IV) [pg EGFP/g liver] | Parent ionizable lipid remaining in liver, Average ([5]; 0.25 h post-dose) [nmol/g liver] | Parent ionizable lipid remaining in liver, Average ([5]; 1 h post-dose) [nmol/g liver] | Parent ionizable lipid remaining in liver, Average ([5]; 3 h post-dose) [nmol/g liver] | Parent ionizable lipid remaining in liver, Average ([5]; 6 h post-dose) [nmol/g liver] | Parent ionizable lipid remaining in liver, Average ([5]; 24 h post-dose) [nmol/g liver] | Parent ionizable lipid remaining in liver, Average ([5]; 168 h post-dose) [nmol/g liver] | further results |
| --- | --- | --- | --- | --- | --- | --- | --- | --- | --- | --- |
| CCCCCCCCC(CCCCCC)C(=O)OCCCCCCN(CCCCO)CCCCCCOC(=O)C(CCCCCC)CCCCCCCC (stereo not drawn) [ALC-0315] | – | – | – | – | – | – | – | – | – | Rate of metabolism (in words) ([1]; ref: Comirnaty Assessment Report, European Medicines Agency): metabolize at a similar rate to MC3 |
| CCCCCCCCCCN(C(=O)CCCN(C)C)C(CCCCCCCCC)CCCCC(F)(F)C(=O)OC(CCCCCCC)CCCCCCC (stereo not drawn) [Compound 101, Pentadecan-8-yl 7-(N-decyl-4-(dimethylamino)butanamido)-2,2-difluorohexadecanoate] | 2.65e+07 | 1.04e+08 | 3.9e+08 | 23.8 | 42.4 | 26.9 | 30.6 | 12.6 | 0.6 | Final Product % EE ([2]; Table 21): 100%; Final Product PDI ([2]; Table 21): 0.10; Final Product Z-avg ([2]; Table 21): 70 nm; Parent ionizable lipid remaining in liver, Average ([3]; Table 29): 16.30 nmol/g liver; EGFP ([6]; Table 25): 2.25E+05 pg/g liver |
| CCCCCCCCCCN(C(=O)CCCN(C)C)C(CCCCCCCCC)CCCCCCC(F)C(=O)OC(CCCCCCCC)CCCCCCCC (stereo not drawn) [Compound 115, Heptadecan-9-yl 9-(N-decyl-4-(dimethylamino)butanamido)-2-fluorooctadecanoate] | 2.98e+07 | 1.31e+08 | 3.41e+08 | 36.7 | 51.3 | 44.8 | 45.3 | 0.0 | 1.3 | Final Product % EE ([2]; Table 22): 98%; Final Product PDI ([2]; Table 22): 0.04; Final Product Z-avg ([2]; Table 22): 72 nm; Parent ionizable lipid remaining in liver, Average ([3]; Table 30): 27.15 nmol/g liver; EGFP ([6]; Table 26): 6.06E+07 pg/g liver |
| CCCCC/C=C\C/C=C\CCCCCCCCC(CCCCCCCC/C=C\C/C=C\CCCCC)OC(=O)CCCN(C)C [MC3] | – | – | – | – | – | – | – | – | – | Clearance from target tissues (in words) ([1]; in vivo): take several weeks to clear from target tissues |

Source: patent US20250332112A1, “IONIZABLE CATIONIC LIPIDS FOR LIPID NANOPARTICLES” (GENEVANT SCIENCES GMBH, priority 2022, published 2025)
